ChEMBL document CHEMBL3774377 (Bioorg Med Chem, 2016)

Columns and labels:
[1] = biological target: T1, Sodium- and chloride-dependent GABA transporter 1 (Mus musculus, UniProt P31648); assay: Displacement of NO 711 from mouse GAT1 expressed in HEK293 cell membranes after 40 mins by LC-ESI-MS-MS-based MS binding assay
[2] = biological target: Sodium- and chloride-dependent GABA transporter 1 (Mus musculus) (UniProt P31648); assay: Displacement of NO 711 from mouse GAT1 expressed in HEK293 cell membranes assessed as remaining marker bound to protein at 1 mM after 40 mins by LC-ESI-MS-MS-based MS binding assay
[3] = biological target: T2, GABA transporter 4 (Mus musculus) (UniProt P31650); assay: Inhibition of mouse GAT4 expressed in HEK293 cells assessed as remaining [3H]GABA uptake at 1 mM preincubated for 25 mins followed by [3H]GABA/unlabeled GABA addition measured after 4 mins by liquid scintillation counting analysis; assay type: cell-based
T2 sequence (whole entry): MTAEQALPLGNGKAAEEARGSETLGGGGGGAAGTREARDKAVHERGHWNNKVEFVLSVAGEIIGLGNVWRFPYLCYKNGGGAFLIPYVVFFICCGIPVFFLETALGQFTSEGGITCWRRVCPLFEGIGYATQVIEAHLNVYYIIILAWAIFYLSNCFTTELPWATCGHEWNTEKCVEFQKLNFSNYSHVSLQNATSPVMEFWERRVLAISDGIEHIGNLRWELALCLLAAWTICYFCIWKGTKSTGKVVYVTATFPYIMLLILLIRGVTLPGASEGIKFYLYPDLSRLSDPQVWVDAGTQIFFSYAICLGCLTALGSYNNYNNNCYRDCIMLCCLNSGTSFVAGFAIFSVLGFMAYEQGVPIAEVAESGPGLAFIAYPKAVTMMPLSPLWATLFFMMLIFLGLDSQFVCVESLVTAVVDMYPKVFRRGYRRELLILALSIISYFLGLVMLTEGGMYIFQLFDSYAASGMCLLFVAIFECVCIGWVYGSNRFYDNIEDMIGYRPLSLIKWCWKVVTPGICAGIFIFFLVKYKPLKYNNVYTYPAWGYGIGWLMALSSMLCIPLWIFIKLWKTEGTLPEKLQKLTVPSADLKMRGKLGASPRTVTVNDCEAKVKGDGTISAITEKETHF

[4] = biological target: T1, Sodium- and chloride-dependent GABA transporter 1; assay: Inhibition of mouse GAT1 expressed in HEK293 cells assessed as [3H]GABA uptake preincubated for 25 mins followed by [3H]GABA/unlabeled GABA addition measured after 4 mins by liquid scintillation counting analysis; assay type: cell-based
[5] = tested on: Sodium- and chloride-dependent betaine transporter (Mus musculus); assay: Inhibition of mouse GAT2 expressed in HEK293 cells assessed as remaining [3H]GABA uptake at 100 uM preincubated for 25 mins followed by [3H]GABA/unlabeled GABA addition measured after 10 mins by liquid scintillation counting analysis
[6] = tested on: Sodium- and chloride-dependent GABA transporter 2 (Mus musculus); assay: Inhibition of mouse GAT3 expressed in HEK293 cells assessed as remaining [3H]GABA uptake at 100 uM preincubated for 25 mins followed by [3H]GABA/unlabeled GABA addition measured after 4 mins by liquid scintillation counting analysis
[7] = biological target: T2, GABA transporter 4 (Mus musculus); assay: Inhibition of mouse GAT4 expressed in HEK293 cells assessed as remaining [3H]GABA uptake at 100 uM preincubated for 25 mins followed by [3H]GABA/unlabeled GABA addition measured after 4 mins by liquid scintillation counting analysis; assay type: cell-based
[8] = biological target: Sodium- and chloride-dependent GABA transporter 1 (Mus musculus) (UniProt P31648); assay: Displacement of NO 711 from mouse GAT1 expressed in HEK293 cell membranes assessed as remaining marker bound to protein at 100 uM after 40 mins by LC-ESI-MS-MS-based MS binding assay
GABA transporter 4 = biological target: T3, GABA transporter 4 (Mus musculus, UniProt P31650); assay: Inhibition of mouse GAT4 expressed in HEK293 cells assessed as [3H]GABA uptake preincubated for 25 mins followed by [3H]GABA/unlabeled GABA addition measured after 4 mins by liquid scintillation counting analysis; assay type: cell-based
T3 sequence (P31650 whole entry): T2 sequence (whole entry)

[9] = tested on: Sodium- and chloride-dependent GABA transporter 2 (Mus musculus); assay: Inhibition of mouse GAT3 expressed in HEK293 cells assessed as remaining [3H]GABA uptake at 1 mM preincubated for 25 mins followed by [3H]GABA/unlabeled GABA addition measured after 4 mins by liquid scintillation counting analysis
[10] = biological target: Sodium- and chloride-dependent GABA transporter 1 (Mus musculus) (UniProt P31648); assay: Inhibition of mouse GAT1 expressed in HEK293 cells assessed as remaining [3H]GABA uptake at 1 mM preincubated for 25 mins followed by [3H]GABA/unlabeled GABA addition measured after 4 mins by liquid scintillation counting analysis; assay type: cell-based
[11] = biological target: Sodium- and chloride-dependent GABA transporter 1 (Mus musculus) (UniProt P31648); assay: Inhibition of mouse GAT1 expressed in HEK293 cells assessed as remaining [3H]GABA uptake at 100 uM preincubated for 25 mins followed by [3H]GABA/unlabeled GABA addition measured after 4 mins by liquid scintillation counting analysis; assay type: cell-based

| SMILES | Ki [1] | IC50 [4] | Activity [5] | Activity [6] | Activity [7] | Activity [8] | Activity [11] | further results |
| --- | --- | --- | --- | --- | --- | --- | --- | --- |
| O=C(O)C1CCCN(CCC=C(c2ccccc2)c2ccccc2)C1 (configuration not stated) | 0.186 µM | – | – | – | – | – | – | – |
| C#CCCC[C@H]1CCNC[C@@H]1C(=O)O (racemic) | – | 1150 µM | – | – | – | – | – | Activity [2]: 87.2%; Activity [3]: 84.9% |
| O=C(O)[C@H]1CNCC[C@@H]1CCC/C=C/c1ccccc1Cc1ccccc1 (racemic) | 77.1 µM | 107 µM | – | – | – | – | – | – |
| O=C(O)[C@H]1CNCC[C@@H]1CC/C=C/c1ccccc1-c1ccccc1 (racemic) | 33.2 µM | 60.5 µM | 88.7% | 53.5% | 84.7% | – | – | – |
| CN1CC[C@H](CCC/C=C/c2ccccc2Cc2ccccc2)[C@@H](C(=O)O)C1 (racemic) | 39.9 µM | 24.7 µM | – | – | 45.7% | – | – | – |
| CN1CC[C@H](CCCC#Cc2ccccc2-c2ccccc2)[C@@H](C(=O)O)C1 (racemic) | – | 37.4 µM | 51.9% | 56.4% | 69.4% | 64.4% | – | – |
| CN1CC[C@H](CC/C=C/c2ccccc2Cc2ccccc2)[C@@H](C(=O)O)C1 (racemic) | 39.8 µM | 36.7 µM | – | – | – | – | – | – |
| O=C(O)[C@H]1CNCC[C@H]1CCCC/C=C/c1ccccc1Cc1ccccc1 (racemic) | 35.4 µM | – | – | – | – | – | – | – |
| CN1CC[C@H](CCCC#Cc2ccccc2Cc2ccccc2)[C@@H](C(=O)O)C1 (racemic) | 28.6 µM | 25.9 µM | – | – | 50% | – | – | – |
| O=C(O)[C@H]1CNCC[C@H]1CCCC#Cc1ccccc1Cc1ccccc1 (racemic) | 31 µM | 40.8 µM | 51.1% | – | – | – | – | IC50 (GABA transporter 4): 62.5 µM |
| O=C(O)[C@H]1CNCC[C@@H]1CCCC/C=C/c1ccccc1-c1ccccc1 (racemic) | 71.8 µM | 75.5 µM | 63.7% | – | – | – | – | IC50 (GABA transporter 4): 83.6 µM |
| CN1CC[C@H](CCC/C=C/c2ccccc2-c2ccccc2)[C@@H](C(=O)O)C1 (racemic) | 72.4 µM | 34.8 µM | 90.8% | 53.8% | 57.9% | – | – | – |
| C=CCCCC[C@H]1CCNC[C@@H]1C(=O)O (racemic) | 818 µM | 740 µM | – | – | – | – | – | Activity [3]: 89.9% |
| O=C(O)[C@H]1CNCC[C@H]1CCC/C=C/c1ccccc1Cc1ccccc1 (racemic) | 68.1 µM | 64.1 µM | – | – | – | – | – | – |
| O=C(O)[C@H]1CNCC[C@H]1CCC/C=C/c1ccccc1-c1ccccc1 (racemic) | – | 66.8 µM | 64.8% | 54.5% | 52.5% | 45.9% | – | – |
| CN1CC[C@H](CC/C=C/c2ccccc2-c2ccccc2)[C@@H](C(=O)O)C1 (racemic) | 14.3 µM | 26.5 µM | 108% | 67.9% | 75.5% | – | – | – |
| O=C(O)[C@H]1CNCC[C@H]1CCCC/C=C/c1ccccc1-c1ccccc1 (racemic) | 27.4 µM | 24.5 µM | – | – | – | – | – | IC50 (GABA transporter 4): 36.7 µM |
| C#CCC[C@H]1CCNC[C@@H]1C(=O)O (racemic) | – | – | – | – | – | – | – | Activity [2]: 88.9%; Activity [3]: 90.4% |
| C=CCC[C@H]1CCNC[C@@H]1C(=O)O (racemic) | – | – | 81.2% | – | – | – | – | Activity [9]: 73.1%; Activity [10]: 63.6%; Activity [2]: 79.9%; Activity [3]: 86.1% |
| CCCC[C@H]1CCNC[C@@H]1C(=O)O (racemic) | – | – | – | – | – | – | – | Activity [10]: 69.9%; Activity [2]: 91.7%; Activity [3]: 87.5% |
| CN1CC[C@H](CCC#Cc2ccccc2-c2ccccc2)[C@@H](C(=O)O)C1 (racemic) | – | – | 68.4% | 81.9% | 81.1% | 86.5% | 79.8% | – |
| CN1CC[C@H](CCC#Cc2ccccc2Cc2ccccc2)[C@@H](C(=O)O)C1 (racemic) | – | – | 57.5% | 71% | 84.4% | 73.9% | 60.9% | – |
| O=C(O)[C@H]1CNCC[C@@H]1CC/C=C/c1ccccc1Cc1ccccc1 (racemic) | – | – | 85.1% | 78.1% | 92.4% | 79% | 86.3% | – |
| O=C(O)[C@H]1CNCC[C@@H]1CCC/C=C/c1ccccc1-c1ccccc1 (racemic) | – | – | 98.3% | 75.7% | 76.1% | 86.6% | 73.9% | – |
| O=C(O)[C@H]1CNCC[C@@H]1CCCC/C=C/c1ccccc1Cc1ccccc1 (racemic) | – | – | – | – | – | 78.5% | 60.5% | – |
| O=C(O)[C@H]1CNCC[C@H]1CC/C=C/c1ccccc1-c1ccccc1 (racemic) | – | – | 81.2% | 55.3% | 63.5% | 76.2% | 68.6% | – |
| O=C(O)[C@H]1CNCC[C@H]1CC/C=C/c1ccccc1Cc1ccccc1 (racemic) | – | – | 62.5% | – | 49.7% | 79.6% | 43.9% | – |
| O=C(O)[C@H]1CNCC[C@H]1CCC#Cc1ccccc1-c1ccccc1 (racemic) | – | – | 52% | 58.2% | 86.9% | 83.9% | 60.4% | – |
| O=C(O)[C@H]1CNCC[C@H]1CCC#Cc1ccccc1Cc1ccccc1 (racemic) | – | – | 68.4% | 53.9% | 63.9% | 82.7% | 70.1% | – |
| O=C(O)[C@H]1CNCC[C@H]1CCCC#Cc1ccccc1-c1ccccc1 (racemic) | – | – | 67.7% | 72.9% | 77.8% | 83.1% | 80% | – |
